Experimental data as given in patent US20260193293A1, “PEPTIDES CAPABLE OF INHIBITING PROTEIN-PROTEIN INTERACTIONS AT GABAB1A SUBUNIT AND USES THEREOF” (UNIVERSITY OF COPENHAGEN, priority 2022, published 2026).
Like-named read-outs stand apart in the source and are kept apart here. Non-standard residues stand in square brackets, D forms with d. Residues, ends and D or L forms follow the SMILES beside them. NMeD = CN[C@@H](CC(=O)O)C(=O)O

Target: Sushi domains (SD1/2) protein
Assay: Fluorescence polarization (FP) competition assay with AJAP-1probe, calculated Ki
Assay type: binding
Details: read-out: Ki (nM) mean ± SEM
In short: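 Ki values were derived from IC50s (sigmoidal fits, ≥ triplicate), with probe Kd obtained by saturation titration of SD1/2. Peptides displaced a 25 nM TAMRA-labelled probe; polarization read at 530/580 nm in 1% BSA-containing PBS, pH 7.4, room temperature.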

[1] = Table 6, elongation and truncation scan of PIANP binding epitope
[2] = Table 9, Ala-, D-amino acids and N-methylation scans of PIANPWT

SMILES | Ki [1] [nM] | other results
CC[C@H](C)[C@H](NC(=O)[C@H](Cc1ccccc1)NC(=O)[C@H](CCC(=O)O)NC(=O)[C@@H](NC(=O)[C@H](CCC(=O)O)NC(C)=O)[C@@H](C)O)C(=O)N[C@@H](C)C(=O)N[C@@H](Cc1c[nH]c2ccccc12)C(=O)N[C@@H](Cc1ccc(O)cc1)C(=O)N1CCC[C@H]1C(=O)N[C@@H](C)C(=O)N[C@@H](CC(=O)O)C(=O)N[C@H](C(=O)N[C@@H](CC(=O)O)C(N)=O)[C@@H](C)O (Ac-ETEFIAWYPADTD-NH2) | – | Ki (Table 13, peptides for affinity maturation): 190 ± 3 nM
CC(=O)N[C@@H](CCC(=O)O)C(=O)N(C)[C@@H](CC(=O)O)C(=O)N[C@@H](CC(=O)O)C(=O)N[C@@H](CO)C(=O)N[C@@H](CC(=O)O)C(=O)N[C@H](C(=O)N[C@@H](Cc1c[nH]c2ccccc12)C(=O)N[C@@H](Cc1c[nH]c2ccccc12)C(=O)NCC(=O)NCC(=O)N[C@@H](C)C(=O)N[C@@H](CC(=O)O)C(=O)N[C@H](C(=O)N[C@@H](CC(=O)O)C(N)=O)[C@@H](C)O)C(C)C (Ac-E[NMeD]DSDVWWGGADTD-NH2) | – | Ki (Table 7, Ala-, D-amino acids and N-methylation scans of APPWT): 655 ± 24 nM
CC(=O)NCC(=O)NCC(=O)N[C@@H](C)C(=O)N[C@@H](CC(=O)O)C(=O)N[C@H](C(=O)N[C@@H](CC(=O)O)C(=O)N[C@@H](Cc1ccc(O)cc1)C(=O)N[C@@H](C)C(=O)N[C@@H](CC(=O)O)C(N)=O)[C@@H](C)O (Ac-GGADTDYAD-NH2) | – | Ki (Table 4, truncation and elongation scans of APP epitope): > 62500 nM
CC[C@H](C)[C@H](NC(C)=O)C(=O)N[C@H](C(=O)N[C@@H](Cc1c[nH]c2ccccc12)C(=O)NCC(=O)N1CCC[C@H]1C(=O)N[C@H](C(=O)N[C@H](C(=O)N[C@@H](CO)C(=O)N[C@@H](CCCNC(=N)N)C(=O)N[C@@H](CCC(=O)O)C(=O)N[C@@H](CC(=O)O)C(=O)NCC(N)=O)C(C)C)[C@@H](C)O)C(C)C (Ac-IVWGPTVSREDG-NH2) | 15700 ± 210 | –
CC(=O)N[C@@H](CCCCN)C(=O)N[C@@H](CC(=O)O)C(=O)N[C@@H](CC(=O)O)C(=O)N[C@@H](CO)C(=O)N[C@@H](CC(=O)O)C(=O)N[C@H](C(=O)N[C@@H](Cc1c[nH]c2ccccc12)C(=O)N[C@@H](Cc1c[nH]c2ccccc12)C(=O)NCC(=O)NCC(=O)N[C@@H](C)C(=O)N[C@@H](CC(=O)O)C(=O)N[C@H](C(=O)N[C@@H](CC(=O)O)C(N)=O)[C@@H](C)O)C(C)C (Ac-KDDSDVWWGGADTD-NH2) | – | Ki (Table 10, deep mutational scanning validation variants of APPWT): 1520 ± 53 nM
CC[C@H](C)[C@H](NC(=O)[C@H](Cc1ccccc1)NC(=O)[C@H](CCC(=O)O)NC(=O)[C@@H](NC(=O)[C@H](CCC(=O)O)NC(=O)[C@@H](NC(=O)[C@@H](NC(=O)[C@@H]1CCCN1C(C)=O)[C@@H](C)O)[C@@H](C)O)[C@@H](C)O)C(=O)N[C@@H](C)C(=O)N[C@@H](Cc1c[nH]c2ccccc12)C(=O)NCC(=O)N1CCC[C@H]1C(=O)N[C@H](C(=O)NCC(=O)N[C@@H](CC(=O)O)C(=O)N[C@@H](CCC(=O)O)C(=O)N[C@@H](CC(=O)O)C(N)=O)[C@@H](C)O (Ac-PTTETEFIAWGPTGDED-NH2) | – | Ki (Table 5, elongation and truncation scan of AJAP-1 binding epitope): 30 ± 0.5 nM
CC[C@H](C)[C@H](NC(=O)[C@H](C)NC(=O)[C@H](Cc1c[nH]c2ccccc12)NC(=O)[C@@H]1CCCN1C(C)=O)C(=O)N[C@H](C(=O)N[C@@H](Cc1c[nH]c2ccccc12)C(=O)NCC(=O)N1CCC[C@H]1C(N)=O)C(C)C (Ac-PWAIVWGP-NH2) | 597 ± 7 | –
CC[C@H](C)[C@H](NC(=O)[C@H](C)NC(=O)[C@H](Cc1c[nH]c2ccccc12)NC(=O)[C@@H]1CCCN1C(C)=O)C(=O)N[C@H](C(=O)N[C@@H](Cc1c[nH]c2ccccc12)C(=O)NCC(=O)N1CCC[C@H]1C(=O)N[C@H](C(N)=O)[C@@H](C)O)C(C)C (Ac-PWAIVWGPT-NH2) | 716 ± 6 | –
CC[C@H](C)[C@H](NC(=O)[C@H](C)NC(=O)[C@H](Cc1c[nH]c2ccccc12)NC(=O)[C@@H]1CCCN1C(C)=O)C(=O)N[C@H](C(=O)N[C@@H](Cc1c[nH]c2ccccc12)C(=O)NCC(=O)N1CCC[C@H]1C(=O)N[C@H](C(=O)N[C@H](C(N)=O)C(C)C)[C@@H](C)O)C(C)C (Ac-PWAIVWGPTV-NH2) | 561 ± 21 | –
CC[C@H](C)[C@H](NC(=O)[C@H](C)NC(=O)[C@H](Cc1c[nH]c2ccccc12)NC(=O)[C@@H]1CCCN1C(C)=O)C(=O)N[C@H](C(=O)N[C@@H](Cc1c[nH]c2ccccc12)C(=O)NCC(=O)N1CCC[C@H]1C(=O)N[C@H](C(=O)N[C@H](C(=O)N[C@@H](CO)C(N)=O)C(C)C)[C@@H](C)O)C(C)C (Ac-PWAIVWGPTVS-NH2) | 463 ± 10 | –
CC[C@H](C)[C@H](NC(=O)[C@H](C)NC(=O)[C@H](Cc1c[nH]c2ccccc12)NC(=O)[C@@H]1CCCN1C(C)=O)C(=O)N[C@H](C(=O)N[C@@H](Cc1c[nH]c2ccccc12)C(=O)NCC(=O)N1CCC[C@H]1C(=O)N[C@H](C(=O)N[C@H](C(=O)N[C@@H](CO)C(=O)N[C@@H](CCCNC(=N)N)C(=O)N[C@@H](C)C(=O)N[C@@H](CC(=O)O)C(N)=O)C(C)C)[C@@H](C)O)C(C)C (Ac-PWAIVWGPTVSRAD-NH2) | – | Ki [2]: 600 ± 22 nM
CC[C@H](C)[C@H](NC(=O)[C@H](C)NC(=O)[C@H](Cc1c[nH]c2ccccc12)NC(=O)[C@@H]1CCCN1C(C)=O)C(=O)N[C@H](C(=O)N[C@@H](Cc1c[nH]c2ccccc12)C(=O)NCC(=O)N1CCC[C@H]1C(=O)N[C@H](C(=O)N[C@H](C(=O)N[C@@H](CO)C(=O)N[C@@H](CCCNC(=N)N)C(=O)N[C@@H](CCC(=O)O)C(=O)N[C@@H](C)C(N)=O)C(C)C)[C@@H](C)O)C(C)C (Ac-PWAIVWGPTVSREA-NH2) | – | Ki [2]: 572 ± 9 nM

Second part, led by results:

Ki [1] [nM] | SMILES | other results
> 62500 | CC[C@H](C)[C@H](NC(=O)[C@H](C)NC(=O)[C@H](Cc1c[nH]c2ccccc12)NC(=O)[C@@H]1CCCN1C(=O)[C@H](Cc1ccc(O)cc1)NC(=O)[C@H](CCC(N)=O)NC(=O)[C@H](CO)NC(=O)[C@H](CO)NC(=O)[C@@H]1CCCN1C(C)=O)C(=O)N[C@H](C(=O)N[C@@H](Cc1c[nH]c2ccccc12)C(=O)NCC(=O)N1CCC[C@H]1C(=O)N[C@H](C(=O)N[C@H](C(=O)N[C@@H](CO)C(=O)N[C@@H](CCCNC(=N)N)C(=O)N[C@@H](CCC(=O)O)C(=O)N[C@@H](CC(=O)O)C(=O)NCC(N)=O)C(C)C)[C@@H](C)O)C(C)C (Ac-PSSQYPWAIVWGPTVSREDG-NH2) | –
433 ± 2 | CC[C@H](C)[C@H](NC(=O)[C@H](C)NC(=O)[C@H](Cc1c[nH]c2ccccc12)NC(=O)[C@@H]1CCCN1C(C)=O)C(=O)N[C@H](C(=O)N[C@@H](Cc1c[nH]c2ccccc12)C(=O)NCC(=O)N1CCC[C@H]1C(=O)N[C@H](C(=O)N[C@H](C(=O)N[C@@H](CO)C(=O)N[C@@H](CCCNC(=N)N)C(N)=O)C(C)C)[C@@H](C)O)C(C)C (Ac-PWAIVWGPTVSR-NH2) | –
650 ± 9 | CC[C@H](C)[C@H](NC(=O)[C@H](C)NC(=O)[C@H](Cc1c[nH]c2ccccc12)NC(=O)[C@@H]1CCCN1C(C)=O)C(=O)N[C@H](C(=O)N[C@@H](Cc1c[nH]c2ccccc12)C(=O)NCC(=O)N1CCC[C@H]1C(=O)N[C@H](C(=O)N[C@H](C(=O)N[C@@H](CO)C(=O)N[C@@H](CCCNC(=N)N)C(=O)N[C@@H](CCC(=O)O)C(N)=O)C(C)C)[C@@H](C)O)C(C)C (Ac-PWAIVWGPTVSRE-NH2) | –
561 ± 21 | CC[C@H](C)[C@H](NC(=O)[C@H](C)NC(=O)[C@H](Cc1c[nH]c2ccccc12)NC(=O)[C@@H]1CCCN1C(C)=O)C(=O)N[C@H](C(=O)N[C@@H](Cc1c[nH]c2ccccc12)C(=O)NCC(=O)N1CCC[C@H]1C(=O)N[C@H](C(=O)N[C@H](C(=O)N[C@@H](CO)C(=O)N[C@@H](CCCNC(=N)N)C(=O)N[C@@H](CCC(=O)O)C(=O)N[C@@H](CC(=O)O)C(=O)NCC(=O)NCC(N)=O)C(C)C)[C@@H](C)O)C(C)C (Ac-PWAIVWGPTVSREDGG-NH2) | –
